Measurements taken from patent US20100173983A1, “METHOD FOR INDUCING AUTOPHAGY” (priority 2007, published 2010).

Experiments:
[1] = system: CP70 (cell line), R179, R182, R585 (primary ovarian cancer explants); assay: Cell viability, CellTiter 96 Aqueous One Solution Cell Proliferation Assay, ovarian cancer cells; type: cell-based, Human; conditions: concentrations up to 10 μg/ml, 24 hr exposure
Protocol: FIG. 1. Comparative cytotoxicity of dehydroequol and Compound I as described herein (Cpd 1) against normal and ovarian cancer cells: CP70 (cell line), R179, R182, R585 (primary ovarian cancer explants) and OSE (normal ovarian surface epithelial cells). […] Both compounds were tested at concentrations up to 10 μg/ml and exposed to cells for 24 hr.
Human EOC cell lines A2780, CP70, and OSE were propagated in RPMI plus 10% fetal bovine serum (FBS) (Gemini Bio-Products, Woodland, Calif.) at 37° C. in a 5% CO2 atmosphere. Primary EOC cells (R179, R182, R585) were isolated from malignant ovarian ascites and cultured as previously described (Kamsteeg et al., 2003). Dehydroequol and Compound 1 (Cpd 1) were obtained from Novogen (Australia). All other reagents were purchased from Sigma Chemical (St. Louis, Mo.). The pan caspase inhibitor Z-VAD-FMK was obtained from R&D Systems (Minneapolis, Minn.).
Cell viability was evaluated using the CellTiter 96 Aqueous One Solution Cell Proliferation Assay (Promega, Madison, Wis.) according to the manufacturer's instructions. The values from the treated cells were compared with the values generated from the untreated cells and reported as percent viability. Each experiment was performed in triplicate.

[2] = system: CP70 ovarian cancer cells; assay: DNA fragmentation, PI/Hoechst FACS analysis; type: cell-based, Human; conditions: 10 μM for 24 hr; 1.4% in the absence of Cpd 1
Protocol: FIG. 7. Cpd 1 induces DNA degradation in CP70 cells. A, No treatment control. B, Cpd 1-treated cells. CP70 ovarian cancer cells were incubated with 10 μg/ml Cpd 1 for […] and fixed. Cells were co-stained with propidium iodide and Hoechst A and incidence of PI labelled cells indicative of DNA degradation in quandrant 2 was assessed by FACS analysis.
The inventors then determined whether treatment with Cpd 1 induced DNA fragmentation. Ovarian cancer cells were treated with Cpd 1 (10 μM) for 24 hr and gently trypsinised. Trypsinized cells were combined with non-adherent cells, rinsed once in medium containing serum and then resuspended at a concentration of 10^7 cells/ml in PBS. Cells were then fixed by adding 0.5 ml of cell suspension to 4.5 ml 70% ice-cold ethanol. After 2 h on ice, cells were pelleted and the ethanol was thoroughly decanted. The cell pellet was rinsed in 5 ml PBS, centrifuged, resuspended in 1 ml of PBS containing 0.1% Triton X-100, 0.2 mg/ml DNase-free RNase A, and 20 μg/ml propidium iodide (PI) and 2 μg/ml hoechst-A and incubated at 37° C. for 15 min before FACS analysis. Cells were analyzed using Becton Dickinson Cell Quest FACStation software (version 3.0.1) operating a Becton Dickinson FACSCalibur FACS machine. Gating was used to remove debris and doublets before collection. Results were quantitated using ModFit LT (1999; Topsham, Me.: Verity Software House, Inc.). […]

cytochrome c = assay: Western blot of R-182 cytoplasmic extracts, cytochrome c; type: cell-based, Human; conditions: R-182 cells, 5 μg/ml over 8 hr
Protocol: FIG. 9. Cpd 1-induced cell death involves cytochrome c translocation to the cytoplasm. R-182 cells treated with Cpd 1 (5 μg/ml) over 8 hr and the cytoplasmic and mitochondrial fractions were separated. […] Cox-4 was included to show the integrity of the mitochondrial preparation.
After treatment with Cpd 1, protein was extracted from cells and measured as previously described (Kamsteeg et al., 2003). For separation of the cytoplasmic and mitochondrial fractions, cell pellets were processed using the ApoAlert Cell Fractionation kit (Promega) according to the manufacturer's instructions. 20 μg protein was denatured in sample buffer (2.5% sodium dodecyl sulfate [SDS], 10% glycerol, 5% β-mercapto-ethanol, 0.15 M Tris, pH 6.8, and 0.01% bromophenol blue) and subjected to 12% SDS polyacrylamide gel electrophoresis (SDS-PAGE) as previously described (Kamsteeg et al., 2003). The following antibodies and concentrations were used: mouse anti-Bax (BD Biosciences, 1:500), rabbit anti-actin (Sigma, 1:10,000), rabbit anti-cytochrome c (BD Biosciences, 1:1,000), mouse anti-Cox-4 (BD Biosciences, 1:500), rabbit anti-beclin 1 (Santa Cruz Biotechnology, 1:600), mouse anti LC3 (Nanotools, 1:500). […] Proteins were observed using enhanced chemiluminescence (Pierce, Rockford, Ill.).
Cpd 1-induced cell death also involves cytochrome c translocation to the cytoplasm (FIG. 9). […]

S6K = assay: Western blot of xenograft tumour extracts, S6K phosphorylation; type: in vivo, SCID mice; conditions: tumour-bearing mice dosed with Cpd 1, compared to control
Protocol: FIG. 11. Cpd 1 markers of autophagy observed in in vitro studies are also present in vivo. […] T-S6K served as loading control.
A downstream target of mTOR is the ribosomal protein S6K kinase thought to have a role in tumour invasiveness, motility and angiogenesis as well as other degenerative diseases such as diabetes (Dann et al., 2007). […] Tumour tissue was homogenised in lysis buffer containing 1% Nonidet P-40, 0.1% SDS, 0.5% deoxycholate, 150 mM NaCl, 50 mM Tris-HCl pH7.5, 1 mM EDTA, 1 mM PMSF and protease inhibitors (Roche) on ice for 30 minutes. After centrifugation at 15,000×g for 15 minutes, soluble extract was were aliquoted into a separate tube, protein content assayed by the BCA method (Pierce), and 50 μg protein loaded on SDS-PAGE gels. Proteins were electrophoretically transferred to PVDF membranes (Millipore Immobilon P) and the membranes were probed with antibodies specific to p-S6K and t-S6K (LifeSpan Bioscience). The blots were developed on X-ray films using HRP-conjugated secondary antibodies and a chemiluminescent substrate (ECL, Amersham, N.Y.).

With `COc1ccc([C@H]2c3ccc(O)c(C)c3OC[C@H]2c2ccc(O)cc2)cc1` (stereo in doubt) [Cpd 1, 3-(4-hydroxyphenyl)-4-(4-methoxyphenyl)-8-methylchroman-7-ol] the “cell viability of ovarian cancer cells” value [1] was “decreased cell viability of all primary ovarian cancer cells”, the DNA fragmentation [2] was 95% and the “occurrence of cytochrome c in the cytoplasm” value (cytochrome c) was “increased over time”. For the same compound, the “phosphorylation status of S6K (S6K-P) in tumour extracts” value (S6K) was “reduced compared to control”.
